Experimental data reported in publication PMC11901902, “Design, Synthesis, and Cytotoxicity Evaluation of Novel Indolin-2-One Based Molecules on Hepatocellular Carcinoma HepG2 Cells as Protein Kinase Inhibitors” (Molecules, 2025).

Assays:
MCF-7 cells = test: MTT cytotoxicity assay on MCF-7 cells; format: cell-based; conditions: Homo sapiens, MCF7; for viability at 1.25 µM: MCF-7, 1.25 µM; for viability at 1.25 µM / viability at 2.5 µM / viability at 5 µM / viability at 10 µM / viability at 20 µM / viability at 40 µM / viability at 80 µM / viability at 160 µM: Table S2; for viability at 2.5 µM: MCF-7, 2.5 µM; for viability at 5 µM: MCF-7, 5 µM; for viability at 10 µM: MCF-7, 10 µM; for viability at 20 µM: MCF-7, 20 µM; for viability at 40 µM: MCF-7, 40 µM; for viability at 80 µM: MCF-7, 80 µM; for viability at 160 µM: MCF-7, 160 µM; for IC50: MTT, 24 h treatment, mean of three experiments ± SEM, read-out: IC50 (µM) MCF-7
Protocol: Cytotoxic activity of the synthesized compounds was evaluated against HepG-2 and MCF-7 cancer cell lines using the MTT assay. The tested cell lines were obtained from the American Type Culture Collection (ATCC, […], USA) through the Tissue Culture Unit, The Egyptian Organization for Biological Products and Vaccines (Vacsera, Giza, Egypt). Indirubin, chemicals, and solvents were purchased from Sigma-Aldrich (St. Louis, MO, USA). The cells were grown on RPMI-1640 medium supplemented with 10% inactivated fetal calf serum and 50 µg/mL gentamycin. The cells were maintained at 37 °C in a humidified atmosphere with 5% CO2 and were sub-cultured two to three times per week. For antitumor assays, the tumor cell lines were suspended in the medium at concentration 5 × 10^4 cell/well in Corning® 96-well tissue culture plates (Corning, Corning, NY, USA), then incubated for 24 h. The tested molecules were then added to 96-well plates (six replicates) to achieve six concentrations for each compound. Six vehicle controls with media or 0.5% DMSO were run for each 96-well plate as a control. After incubating for 24 h, the numbers of viable cells were determined by the MTT test. Briefly, the media was removed from the 96 well plate and replaced with 100 µL of fresh culture RPMI 1640 medium without phenol red then 10 µL of the 12 mM MTT stock solution (5 mg of MTT in 1 mL of PBS) to each well including the untreated controls. The 96-well plates were then incubated at 37 °C and 5% CO2 for 4 h. An 85 µL aliquot of the media was removed from the wells, and 50 µL of DMSO was added to each well, mixed thoroughly with the pipette, and incubated at 37 °C for 10 min. Then, the optical density was measured at 590 nm with the microplate reader (SunRise, TECAN, Inc., Morrisville, NC, USA) to determine the number of viable cells, and the percentage of viability was calculated as […], where ODt is the mean optical density of wells treated with the tested sample and ODc is the mean optical density of untreated cells. The relation between surviving cells and drug concentration was plotted to obtain the survival curve of each tumor cell line after treatment with the specified compound. […] Each concentration was repeated four times.

p53 = test: ELISA of p53 in treated HepG-2 cells; format: cell-based, human; conditions: for upregulation of p53 expression compared to untreated cells: HepG-2, compound at its IC50, 24 h; for Concentration of p53: HepG-2, compound at its IC50, ± S.E.M, control 48.29±3.87
Protocol: HepG2 cells were cultured in RPMI 10% + 5%FBS penicillin/streptomycin and were incubated at a humidity 5% CO2 and maintained at 37 °C. […] HepG2 cells were cultured as a monolayer in T-25 flasks and were seeded to attain 30% confluency prior to treatment. The main 100 mM stock dissolved in DMSO was diluted with the cell culture medium in order to reach the previously determined IC50 concentration of each of the three preparations. After that, HepG2 cells were collected via trypsinization and centrifuged at 10,000 rpm. The pellet was then rinsed with PBS and lysed in RIPA lysis buffer at 4 °C for 45 min, then centrifuged at 14,000 rpm for 20 min to remove the cellular debris. Lysates were then collected and stored at […] for protein determination. The levels of p53, p21, Fas-L, Bax, Bcl-2, and caspase 3/7 were assessed using the human P53 ELISA kit (Catalog No. ABIN6962151), P21 ELISA kit (Catalog No. ABIN6966175), Human Apoptosis Ligand (FAS-L), Bax ELISA kit, Human Factor-Related. Bcl-2 ELISA kit ELISA kit, and caspase3/7 ELISA kit (Elabscience Biotechnology Co., Wuhan, Hubei, China). The procedure of the used kits was done according to the manufacturer’s instructions. Briefly, equal amounts of cell lysates were loaded and then probed with specific antibodies. The samples were measured at 450 nm in ROBONEK P2000 ELISA reader. The analysis was confirmed with three different sets of extracts. All experiments were done in triplicate (Tables S6–S9).

CDK-2 = biological target: T1, CDK-2 (Homo sapiens, UniProt P24941); test: Kinase-Glo Plus luminescence kinase inhibition assay, CDK-2; format: biochemical; conditions: for IC50: 10 µM ATP, 30 °C, 40 min, mean ± SEM
T1 construct: purchased BPS Bioscience 41101
Protocol: (§1) The enzyme inhibition assay for the tested molecules was performed at BPS Bioscience Corporation, San Diego, CA, USA. The following materials served as the enzyme sources, Poly (Glu, Tyr) sodium salt (4:1, Glu:Tyr) (Sigma#P7244) served as the standardized substrate, and the Kinase-Glo Plus Luminescence kinase assay kit (Promega # V3772) was used. […] Glo Plus luminescence kinase assay kits. The assays were performed using Kinase-Glo Plus luminescence (Promega Corporation, Madison, WI, USA).
(§2) The tested molecules 9, 20, and indurbin were diluted to 100 µL in DMSO (10%), and 5 µL of the solution was added to a 50-µL enzyme reaction until the final concentration of DMSO was 1% in all of reactions. The enzymatic reactions were conducted at 30 °C for 40 min. The reaction mixture contained enzyme substrate and respective kinases. After the enzymatic reaction, 50 µL of enzyme-Glo Plus luminescence […] assay solution (Promega) was added to each reaction, and the plate was incubated for 5 min at room temperature. The luminescence signal was measured using a BioTek Synergy 2 microplate reader. The luminescence data were analyzed using the computer software GraphPad Prism. The difference between luminescence intensities in the absence of enzyme (Lut) and in the presence of enzyme (Luc) was defined as 100% activity (Lut − Luc). The values of enzyme activity percentages versus five concentrations of the small molecule were then plotted using a non-linear regression analysis of the sigmoidal dose–response curve. The IC50 value was determined using GraphPad Prism software. All experiments were repeated three times (Table S3).
Glo Plus luminescence kinase assay kits were used in these assays. The assay was done at Bioscience Laboratory BPS, California, USA. The assay measures kinase activity by quantitating the amount of ATP remaining in the solution following kinase reaction. The luminescent signal from the assay was correlated with the amount of ATP present and inversely correlated with kinase activity. […] All of the enzymatic reactions were conducted at 30 °C for 40 min. The reaction mixture contained 40 mM Tris, pH 7.4, 10 mM MgCl2, 0.1 mg/mL BSA, 1 mM DTT, 10 µM ATP, Kinase substrate, and VEGFR-2, EFGR, CDK-2 and CDK-4 enzymes. After the enzymatic reaction, 50 µL of Kinase-Glo Plus Luminescence kinase assay solution (Promega) was added to each reaction, and the plate was incubated for 5 min at room temperature. The luminescence signal was measured using a BioTek Synergy 2 microplate reader. Kinase activity assays were performed in triplicate for each concentration. The luminescence data were analyzed using the Graphpad Prism software.

EGFR = biological target: T2, EGFR (Homo sapiens, UniProt P00533); test: Kinase-Glo Plus luminescence kinase inhibition assay, EGFR; format: biochemical; conditions: 10 µM ATP, 30 °C, 40 min; mean ± SEM
T2 construct: purchased BPS Bioscience 40721
Protocol: as §1
as §2, with “The values of enzyme activity percentages versus five concentrations of the small molecule were then plotted using a non-linear regression analysis of the sigmoidal dose–response curve.” left out, “All experiments were repeated three times (Table S3).” left out
Glo Plus luminescence kinase assay kits were used in these assays. […] The assay measures kinase activity by quantitating the amount of ATP remaining in the solution following kinase reaction. […] After the enzymatic reaction, 50 µL of Kinase-Glo Plus Luminescence kinase assay solution (Promega) was added to each reaction, and the plate was incubated for 5 min at room temperature. The luminescence signal was measured using a BioTek Synergy 2 microplate reader. […] The luminescence data were analyzed using the Graphpad Prism software.

T2 sequence (P00533 25-1210): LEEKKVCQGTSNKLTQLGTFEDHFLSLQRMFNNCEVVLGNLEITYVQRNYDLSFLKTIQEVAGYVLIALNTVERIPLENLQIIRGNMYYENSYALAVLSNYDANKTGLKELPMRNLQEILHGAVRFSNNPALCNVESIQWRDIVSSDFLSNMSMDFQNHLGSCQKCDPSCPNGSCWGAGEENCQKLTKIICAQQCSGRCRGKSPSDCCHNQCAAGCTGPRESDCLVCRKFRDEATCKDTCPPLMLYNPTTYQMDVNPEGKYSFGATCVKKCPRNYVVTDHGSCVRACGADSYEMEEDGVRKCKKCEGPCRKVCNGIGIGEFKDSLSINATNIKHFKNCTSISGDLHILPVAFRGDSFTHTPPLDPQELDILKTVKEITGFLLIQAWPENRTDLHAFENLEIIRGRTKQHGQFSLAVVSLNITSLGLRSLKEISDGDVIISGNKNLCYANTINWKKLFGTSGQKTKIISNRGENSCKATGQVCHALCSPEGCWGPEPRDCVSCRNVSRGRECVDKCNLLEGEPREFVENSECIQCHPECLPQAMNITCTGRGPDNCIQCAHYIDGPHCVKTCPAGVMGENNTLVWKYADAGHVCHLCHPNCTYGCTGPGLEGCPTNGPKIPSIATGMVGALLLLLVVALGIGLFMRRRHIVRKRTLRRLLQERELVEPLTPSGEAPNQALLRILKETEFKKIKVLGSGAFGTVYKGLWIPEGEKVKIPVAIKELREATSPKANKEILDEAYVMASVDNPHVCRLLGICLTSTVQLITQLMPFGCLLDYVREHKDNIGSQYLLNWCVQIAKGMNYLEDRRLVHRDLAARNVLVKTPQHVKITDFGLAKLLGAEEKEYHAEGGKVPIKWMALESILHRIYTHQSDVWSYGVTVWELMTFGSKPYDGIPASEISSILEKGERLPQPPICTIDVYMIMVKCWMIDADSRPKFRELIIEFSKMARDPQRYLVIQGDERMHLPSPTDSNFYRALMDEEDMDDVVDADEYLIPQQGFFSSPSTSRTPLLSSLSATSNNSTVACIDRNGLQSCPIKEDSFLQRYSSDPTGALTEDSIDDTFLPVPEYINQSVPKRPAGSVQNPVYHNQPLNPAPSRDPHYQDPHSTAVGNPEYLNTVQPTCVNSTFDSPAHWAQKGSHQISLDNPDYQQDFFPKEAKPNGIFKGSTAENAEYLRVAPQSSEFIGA

SMILES	viability at 1.25 µM (MCF-7 cells) [%]	viability at 2.5 µM (MCF-7 cells) [%]	viability at 5 µM (MCF-7 cells) [%]	viability at 10 µM (MCF-7 cells) [%]	viability at 20 µM (MCF-7 cells) [%]	viability at 40 µM (MCF-7 cells) [%]	viability at 80 µM (MCF-7 cells) [%]	viability at 160 µM (MCF-7 cells) [%]	IC50 (MCF-7 cells) [µM]	upregulation of p53 expression compared to untreated cells (p53) [fold]	Concentration of p53 (p53) [pg/mL]	IC50 (CDK-2) [nM]	fold higher inhibitory effect than indirubin against CDK-2 (CDK-2; relative to indirubin) [fold]	IC50 (EGFR) [nM]
O=C1Nc2ccc(Cl)cc2C1=Nc1ccc2nc[nH]c(=O)c2c1 [Compound 9, 6-(5-Chloro-2-oxo-1,2-dihydro-indol-3-ylideneamino)-3H-quinazolin-4-one]	90.5 ± 7.8	72.8 ± 6.3	64.1 ± 4.5	49 ± 2	34.4 ± 0.2	18.2 ± 1	14.8 ± 1.3	8.7 ± 1.2	7.54 ± 0.71	6.7	325.11 ± 29.55	9.39 ± 0.51	4.8	87.5 ± 6.71
O=C1Nc2ccc(Cl)cc2C1=Nc1ccc(-c2nc3ccccc3c(=O)[nH]2)cc1 [Compound 20, 2-[4-(5-Chloro-2-oxo-1,2-dihydro-indol-3-ylideneamino)-phenyl]-3H-quinazolin-4-one]	92.4 ± 5.7	84.3 ± 4.8	76.7 ± 4.2	67.9 ± 3.4	47.1 ± 3	24.6 ± 1.9	7.77 ± 0.9	4.1 ± 0.1	5.28 ± 0.22	2.65	127.43 ± 9.43	225 ± 12.6		32.7 ± 1.61
